For seven molecules, IC50 results are on record in ChEMBL document CHEMBL1129347, “Topographical amino acid substitution in position 10 of glucagon leads to antagonists/partial agonists with greater binding differences” (J Med Chem, 1996).

The assay deals with Glucagon receptor (Rattus norvegicus, UniProt P30082). The assay can be described thus: Inhibition of [125I]glucagon binding towards Glucagon receptor.
Sequence of Glucagon receptor (P30082 whole entry): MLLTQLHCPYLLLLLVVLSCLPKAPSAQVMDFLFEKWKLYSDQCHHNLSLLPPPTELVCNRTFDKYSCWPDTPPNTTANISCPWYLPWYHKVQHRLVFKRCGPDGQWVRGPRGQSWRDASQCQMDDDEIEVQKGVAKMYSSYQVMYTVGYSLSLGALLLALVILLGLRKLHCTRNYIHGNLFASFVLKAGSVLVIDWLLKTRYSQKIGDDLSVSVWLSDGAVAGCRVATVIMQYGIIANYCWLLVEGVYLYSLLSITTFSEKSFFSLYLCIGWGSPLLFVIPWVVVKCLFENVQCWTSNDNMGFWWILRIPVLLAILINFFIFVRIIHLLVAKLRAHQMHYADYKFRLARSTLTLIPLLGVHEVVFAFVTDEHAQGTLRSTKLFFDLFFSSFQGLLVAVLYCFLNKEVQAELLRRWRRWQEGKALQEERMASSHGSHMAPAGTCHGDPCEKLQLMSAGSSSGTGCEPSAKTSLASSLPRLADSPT
In the case of `CSCC[C@H](NC(=O)[C@H](CC(C)C)NC(=O)[C@H](Cc1c[nH]c2ccccc12)NC(=O)[C@H](CCC(N)=O)NC(=O)[C@@H](NC(=O)[C@H](Cc1ccccc1)NC(=O)[C@H](CC(=O)O)NC(=O)[C@H](CCC(N)=O)NC(=O)[C@H](C)NC(=O)[C@H](CCCNC(=N)N)NC(=O)[C@H](CCCNC(=N)N)NC(=O)[C@H](CO)NC(=O)[C@H](CC(=O)O)NC(=O)[C@H](CC(C)C)NC(=O)[C@H](Cc1ccc(O)cc1)NC(=O)[C@H](CCCCN)NC(=O)[C@H](CO)NC(=O)[C@@H](Cc1ccccc1)NC(=O)[C@H](CCC(=O)O)NC(=O)[C@H](CO)NC(=O)[C@@H](NC(=O)[C@H](Cc1ccccc1)NC(=O)[C@H](Cc1ccc(O)cc1)NC(=O)CNC(=O)[C@H](CCC(N)=O)NC(=O)[C@@H](N)CO)[C@@H](C)O)C(C)C)C(=O)N[C@@H](CC(N)=O)C(=O)N[C@H](C(N)=O)[C@@H](C)O`, the IC50 (commonly the concentration that inhibits the measured activity by half) was found to be 34.5 nM. That is a double-digit nanomolar value.
The figure for `CSCC[C@H](NC(=O)[C@H](CC(C)C)NC(=O)[C@H](Cc1c[nH]c2ccccc12)NC(=O)[C@H](CCC(N)=O)NC(=O)[C@@H](NC(=O)[C@H](Cc1ccccc1)NC(=O)[C@H](CC(=O)O)NC(=O)[C@H](CCC(N)=O)NC(=O)[C@H](C)NC(=O)[C@H](CCCNC(=N)N)NC(=O)[C@H](CCCNC(=N)N)NC(=O)[C@H](CO)NC(=O)[C@H](CC(=O)O)NC(=O)[C@H](CC(C)C)NC(=O)[C@H](Cc1ccc(O)cc1)NC(=O)[C@H](CCCCN)NC(=O)[C@H](CO)NC(=O)[C@H](C)NC(=O)[C@H](CCC(=O)O)NC(=O)[C@H](CO)NC(=O)[C@@H](NC(=O)[C@H](Cc1ccccc1)NC(=O)[C@H](Cc1ccc(O)cc1)NC(=O)CNC(=O)[C@H](CCC(N)=O)NC(=O)[C@@H](N)CO)[C@@H](C)O)C(C)C)C(=O)N[C@@H](CC(N)=O)C(=O)N[C@H](C(N)=O)[C@@H](C)O` is 395 nM; for `CSCC[C@H](NC(=O)[C@H](CC(C)C)NC(=O)[C@H](Cc1c[nH]c2ccccc12)NC(=O)[C@H](CCC(N)=O)NC(=O)[C@@H](NC(=O)[C@H](Cc1ccccc1)NC(=O)[C@H](CC(=O)O)NC(=O)[C@H](CCC(N)=O)NC(=O)[C@H](C)NC(=O)[C@H](CCCNC(=N)N)NC(=O)[C@H](CCCNC(=N)N)NC(=O)[C@H](CO)NC(=O)[C@H](CC(=O)O)NC(=O)[C@H](CC(C)C)NC(=O)[C@H](Cc1ccc(O)cc1)NC(=O)[C@H](CCCCN)NC(=O)[C@H](CO)NC(=O)[C@H](Cc1ccccc1)NC(=O)[C@H](CCC(=O)O)NC(=O)[C@H](CO)NC(=O)[C@@H](NC(=O)[C@H](Cc1ccccc1)NC(=O)[C@H](Cc1ccc(O)cc1)NC(=O)CNC(=O)[C@H](CCC(N)=O)NC(=O)[C@@H](N)CO)[C@@H](C)O)C(C)C)C(=O)N[C@@H](CC(N)=O)C(=O)N[C@H](C(N)=O)[C@@H](C)O` it is 4.1 nM; for `CSCC[C@H](NC(=O)[C@H](CC(C)C)NC(=O)[C@H](Cc1c[nH]c2ccccc12)NC(=O)[C@H](CCC(N)=O)NC(=O)[C@@H](NC(=O)[C@H](Cc1ccccc1)NC(=O)[C@H](CC(=O)O)NC(=O)[C@H](CCC(N)=O)NC(=O)[C@H](C)NC(=O)[C@H](CCCN=C(N)N)NC(=O)[C@H](CCCN=C(N)N)NC(=O)[C@H](CO)NC(=O)[C@H](CC(=O)O)NC(=O)[C@H](CC(C)C)NC(=O)[C@H](Cc1ccc(O)cc1)NC(=O)[C@H](CCCCN)NC(=O)[C@H](CO)NC(=O)[C@@H](Cc1ccc(O)cc1)NC(=O)[C@H](CCC(=O)O)NC(=O)[C@H](CO)NC(=O)[C@@H](NC(=O)[C@H](Cc1ccccc1)NC(=O)[C@H](Cc1ccc(O)cc1)NC(=O)CNC(=O)[C@H](CCC(N)=O)NC(=O)[C@@H](N)CO)[C@@H](C)O)C(C)C)C(=O)N[C@@H](CC(N)=O)C(=O)N[C@H](C(N)=O)[C@@H](C)O` it is 74 nM.
To `CSCC[C@H](NC(=O)[C@H](CC(C)C)NC(=O)[C@H](Cc1c[nH]c2ccccc12)NC(=O)[C@H](CCC(N)=O)NC(=O)[C@@H](NC(=O)[C@H](Cc1ccccc1)NC(=O)[C@H](CC(=O)O)NC(=O)[C@H](CCC(N)=O)NC(=O)[C@H](C)NC(=O)[C@H](CCCN=C(N)N)NC(=O)[C@H](CCCN=C(N)N)NC(=O)[C@H](CO)NC(=O)[C@H](CC(=O)O)NC(=O)[C@H](CC(C)C)NC(=O)[C@H](Cc1ccc(O)cc1)NC(=O)[C@H](CCCCN)NC(=O)[C@H](CO)NC(=O)[C@@H](NC(=O)[C@H](CCC(=O)O)NC(=O)[C@H](CO)NC(=O)[C@@H](NC(=O)[C@H](Cc1ccccc1)NC(=O)[C@H](Cc1ccc(O)cc1)NC(=O)CNC(=O)[C@H](CCC(N)=O)NC(=O)[C@@H](N)CO)[C@@H](C)O)[C@H](C)c1ccccc1)C(C)C)C(=O)N[C@@H](CC(N)=O)C(=O)N[C@H](C(N)=O)[C@@H](C)O` belongs 10 nM; to `CSCC[C@H](NC(=O)[C@H](CC(C)C)NC(=O)[C@H](Cc1c[nH]c2ccccc12)NC(=O)[C@H](CCC(N)=O)NC(=O)[C@@H](NC(=O)[C@H](Cc1ccccc1)NC(=O)[C@H](CC(=O)O)NC(=O)[C@H](CCC(N)=O)NC(=O)[C@H](C)NC(=O)[C@H](CCCN=C(N)N)NC(=O)[C@H](CCCN=C(N)N)NC(=O)[C@H](CO)NC(=O)[C@H](CC(=O)O)NC(=O)[C@H](CC(C)C)NC(=O)[C@H](Cc1ccc(O)cc1)NC(=O)[C@H](CCCCN)NC(=O)[C@H](CO)NC(=O)[C@H](Cc1ccc(O)cc1)NC(=O)[C@H](CCC(=O)O)NC(=O)[C@H](CO)NC(=O)[C@@H](NC(=O)[C@H](Cc1ccccc1)NC(=O)[C@H](Cc1ccc(O)cc1)NC(=O)CNC(=O)[C@H](CCC(N)=O)NC(=O)[C@@H](N)CO)[C@@H](C)O)C(C)C)C(=O)N[C@@H](CC(N)=O)C(=O)N[C@H](C(N)=O)[C@@H](C)O`, 2.3 nM; to `CSCC[C@H](NC(=O)[C@H](CC(C)C)NC(=O)[C@H](Cc1c[nH]c2ccccc12)NC(=O)[C@H](CCC(N)=O)NC(=O)[C@@H](NC(=O)[C@H](Cc1ccccc1)NC(=O)[C@H](CC(=O)O)NC(=O)[C@H](CCC(N)=O)NC(=O)C(C)NC(=O)[C@H](CCCN=C(N)N)NC(=O)[C@H](CCCN=C(N)N)NC(=O)[C@H](CO)NC(=O)[C@H](CC(=O)O)NC(=O)[C@H](CC(C)C)NC(=O)[C@H](Cc1ccc(O)cc1)NC(=O)[C@H](CCCCN)NC(=O)[C@H](CO)NC(=O)C(C)NC(=O)[C@H](CCC(=O)O)NC(=O)[C@H](CO)NC(=O)[C@@H](NC(=O)[C@H](Cc1ccccc1)NC(=O)[C@H](Cc1ccc(O)cc1)NC(=O)CNC(=O)[C@H](CCC(N)=O)NC(=O)[C@@H](N)CO)[C@@H](C)O)C(C)C)C(=O)N[C@@H](CC(N)=O)C(=O)N[C@H](C(N)=O)[C@@H](C)O` (stereo in doubt), 510 nM.
